Each structure is given as a SMILES string.

This is an account of results in publication PMC10511816 (The Journal of Biological Chemistry, 2023).

For test [1], the target named is XOR. Particulars: read-out: Ki for the xanthine to uric acid reaction; steady-state kinetic analysis; cited from earlier work.
Test [2] concerns the target XDH (Bos taurus, UniProt P80457). Particulars: 2 μM hypoxanthine, 500 μM β-NAD+, 6 nM XDH, pH 8.5, 25 °C. As for the experimental part: The rate of NAD^+ conversion to NADH was measured at A340 nm.
(§1) Bovine milk was obtained from the animal farm of the Nippon Veterinary and Life Science University. […] The dehydrogenase form of the enzyme (XDH) was obtained by reacting XO immediately upon purification with 5 mM DTT at pH 8.5, 25 °C for 1 h. XO and XDH assays were carried out at 25 °C under aerobic conditions. […] A total of 500 μM β-NAD^+ was added to the same reaction solution for XDH activity. Physiological conditions such as pH 7.4 (0.1 M potassium phosphate buffer (KPB), 0.2 mM EDTA) and the addition of 50 μM β-NADH were also used. The activity was measured by following 295 nm and 340 nm on a UV-1800 or UV1900i spectrophotometer. […] In addition, the enzyme reaction solution was quenched with perchloric acid and neutralized with K2CO3, with products analyzed using HPLC as described below. Spectrophotometric data were analyzed using UV-Probe software Ver. 2.70 or LabSolutions UV-Vis Ver. […] Kinetic parameters were determined from nonlinear curve fits of raw data using GraphPad Prism 9 software.

The target of test [3] is XO (Bos taurus, UniProt P80457). In words: initial-velocity steady-state kinetics of XO, O2 as electron acceptor. In kind it is biochemical, bovine. Also noted: Bovine milk was obtained from the animal farm of the Nippon Veterinary and Life Science University; from tissue; host or cells: bovine milk. As for the experimental part: as §1
A295 indicates the concentration of uric acid yielded by XOR. […] A295 indicates the concentration of uric acid yielded by XOR. Figure S2. The XOR inhibition mode of oxypurinol.A–G, Lineweaver-Burk plots were generated to visualize data and estimated the inhibition patterns. Data are representative of least two independent experiments. […] Figure S3. […] B, mode of inhibition of oxypurinol on the inosine degradation reaction of PNP. […] 0, 250, 375, 500, 750 and 1000 μM of oxypurinol were used. […] The rate of NAD^+ conversion to NADH was measured at A340 nm.

Chain of XO (P80457 whole entry): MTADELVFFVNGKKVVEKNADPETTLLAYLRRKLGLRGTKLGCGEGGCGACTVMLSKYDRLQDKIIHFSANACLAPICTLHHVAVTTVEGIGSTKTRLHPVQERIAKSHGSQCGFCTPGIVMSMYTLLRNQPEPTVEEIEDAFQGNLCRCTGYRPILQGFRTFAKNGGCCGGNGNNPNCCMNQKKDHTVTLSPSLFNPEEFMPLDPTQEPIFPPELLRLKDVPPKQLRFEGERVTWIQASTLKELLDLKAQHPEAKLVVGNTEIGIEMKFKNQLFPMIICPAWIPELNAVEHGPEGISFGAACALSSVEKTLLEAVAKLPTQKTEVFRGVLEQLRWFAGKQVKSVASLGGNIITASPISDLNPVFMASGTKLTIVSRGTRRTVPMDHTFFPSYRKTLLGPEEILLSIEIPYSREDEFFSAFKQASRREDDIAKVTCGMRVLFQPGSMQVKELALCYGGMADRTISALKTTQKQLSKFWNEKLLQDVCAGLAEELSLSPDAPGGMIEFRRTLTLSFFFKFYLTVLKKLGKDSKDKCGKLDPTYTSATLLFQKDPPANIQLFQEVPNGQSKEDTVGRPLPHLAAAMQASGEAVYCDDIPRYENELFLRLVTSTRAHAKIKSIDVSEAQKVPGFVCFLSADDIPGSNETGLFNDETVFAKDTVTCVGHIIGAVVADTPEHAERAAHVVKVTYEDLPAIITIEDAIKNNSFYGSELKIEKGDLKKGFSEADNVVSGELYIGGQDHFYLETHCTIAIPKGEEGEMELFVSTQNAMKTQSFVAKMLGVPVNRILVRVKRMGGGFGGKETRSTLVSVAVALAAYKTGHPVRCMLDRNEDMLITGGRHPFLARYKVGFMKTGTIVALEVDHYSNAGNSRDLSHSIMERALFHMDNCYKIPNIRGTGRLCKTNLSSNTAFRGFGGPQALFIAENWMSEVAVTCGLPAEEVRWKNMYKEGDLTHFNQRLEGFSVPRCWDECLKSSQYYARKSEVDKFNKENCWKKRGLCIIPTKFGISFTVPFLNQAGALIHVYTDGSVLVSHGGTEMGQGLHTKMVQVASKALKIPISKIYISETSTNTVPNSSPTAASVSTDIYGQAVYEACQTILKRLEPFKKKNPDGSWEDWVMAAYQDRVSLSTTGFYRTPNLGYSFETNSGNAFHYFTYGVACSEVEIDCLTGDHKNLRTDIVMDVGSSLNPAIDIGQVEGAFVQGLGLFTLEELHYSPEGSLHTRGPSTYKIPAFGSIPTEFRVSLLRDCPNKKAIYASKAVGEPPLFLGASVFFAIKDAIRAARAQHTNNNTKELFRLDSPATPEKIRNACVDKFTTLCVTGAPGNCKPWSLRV
Chain of XDH (P80457 whole entry): as above

One may read the Ki as the equilibrium dissociation constant of an inhibitor or competing ligand from its target. Regarding `Oc1ncnc2[nH]ncc12` [Allopurinol], the inhibitory constant (Ki) in test [1] was 0.1 µM. The “concentration above which NADH formation is immediately inhibited” value in test [2] is listed as “Above 5 μM”.
`O=c1[nH]c(=O)c2c[nH]nc2[nH]1` [Oxypurinol] registered an inhibition constant Ki in test [3] of 6.35 ± 0.96 µM. Besides, the Types of inhibition result in test [3] (XO, substrate xanthine, O2, 295 nm) is on record as “Competitive”. Moreover, in test [3] (both XO and XDH, allopurinol Ki ref 19), the “Ki for oxypurinol relative to Ki for allopurinol” value was “about 10 fold”.
